Assay results published in US20180280337A1, “NUTRITIONAL COMPOSITIONS COMPRISING SN-1(3) MONOACYLGLYCEROLS FOR USE IN THE TREATMENT OF GROWTH DELAY IN INFANTS OR CHILDREN” (NESTEC S.A., priority 2014, published 2018).

Experiments:
[1] = Clinical study comparing sn-1(3) MAG and fish oil (TAG) in delivering EPA under lipid maldigestion induced by XENICAL; assay type: in vivo, humans; details: for chronic effect: accretion of EPA in erythrocytes as percentage of total fatty acids: compared with fish oil + XENICAL, p=0.0001 (FIG. 6)
Protocol: This clinical study compared the efficacy of sn-1(3) MAG and fish oil (TAG) in delivering EPA in humans under lipid maldigestion conditions induced by XENICAL® (ORLISTAT). The comparison was tested in volunteers treated with XENICAL® to induce lipid maldigestion or not treated with XENICAL® (ORLISTAT). The primary objective was to assess accretion of EPA in erythrocytes over 21 days when consumed as fish oil (TAG) or sn-1(3) MAG. The secondary objectives were to assess accretion of EPA in plasma over 21 days and also to assess the pharmacokinetics of EPA after an acute dose either in the form of sn-1(3) MAG or TAG (AUC in chylomicrons over 10 hours postprandial). See FIG. 4 that describes the clinical study timeline.

[2] = Lipid maldigestion or malabsorption rat model (XENICAL-induced): EPA level in red blood cells and tissue after feeding EPA glycerides or fish oil; assay type: in vivo; details: for level of EPA incorporated in red blood cells: rats given XENICAL, day 7 data (FIG. 3)
Protocol: The concept was tested in a lipid maldigestion or malabsorption rat model. The maldigestion or malabsorption condition was obtained using XENICAL® (ORLISTAT, tetrahydrolipstatin), a pancreatic and gastric lipases inhibitor. Rats were fed during 21 days with long-chain polyunsaturated fatty acid (LC-PUFA) supplements containing mainly eicosapentaenoic (EPA) acid. Fish oil was used as a source of triacylglycerols, and different EPA glycerides were evaluated: Vanillin acetal of 2-EPA (from Stepan Lipid Nutrition); 1,3 Diacetyl-2 EPA (from Stepan Lipid Nutrition) and Sn-1(3)-MAG-EPA (purchased from Cognis GmbH, Germany). XENICAL® (ORLISTAT) was given at a level sufficient to decrease lipid absorption by 40%. A group receiving fish oil without XENICAL® (ORLISTAT) was used as a positive control. At different time intervals (D3, D7, […]), the fatty acid profiles of red blood cells and plasma lipids were determined. At the end of the experiment, the fatty acid profiles of different tissues were determined. The main objective was to follow the level of EPA in red blood cells and plasma lipids. The main comparison evaluated was the difference in EPA level between the group receiving EPA glycerides such as EPA-containing sn-1(3) MAG, in combination with XENICAL® (ORLISTAT) and the positive control group […].

With CC/C=C\C/C=C\C/C=C\C/C=C\C/C=C\CCCC(=O)OCC(O)CO (stereo not drawn) [sn-1(3) MAG, sn-1(3)-monoeicosapentaenoylglycerol] the “chronic effect: accretion of EPA in erythrocytes as percentage of total fatty acids” value ([1]; after 21 days, with XENICAL) was “statistically significant”, the “chronic effect: accretion of EPA in erythrocytes as percentage of total fatty acids” value ([1]; after 21 days, with XENICAL, listed as sn-1(3)MAGs) was “significantly higher” and the “chronic effect: accretion of EPA in plasma as percentage of total fatty acids” value ([1]; after 21 days, with XENICAL, relative to fish oil + XENICAL, p=0.0003 (FIG. 7)) was “statistically significant”. For the same compound, the “carrier for EPA (overall conclusion of the clinical trial)” value ([1]; human subjects treated with XENICAL, compared with fish oil (TAG)) was “better carrier for EPA than fish oil (TAG)”, the “incorporation of LC-PUFAs in tissue” value ([2]; conditions of lipid maldigestion or malabsorption (XENICAL), comparison of groups A, B and C) was “improved” and the “level of EPA incorporated in red blood cells” value (from here on “level of EPA incorporated”) ([2]; compared with fish oil group without XENICAL) was “even higher than the fish oil group”. For the same compound, the “level of EPA incorporated” value ([2]; fed 21 days, compared with fish oil + XENICAL, all P values lower than 0.05, listed as sn-1(3) MAG that contained EPA) was “statistically higher” and the “level of EPA incorporated” value ([2]; fed 21 days, compared with fish oil + XENICAL, all P values lower than 0.05, listed as sn-1(3)MAGs) was “significantly higher”.
For CCCCCCCCCCC[C@@H](C[C@@H]1OC(=O)[C@H]1CCCCCC)OC(=O)[C@H](CC(C)C)NC=O [XENICAL, tetrahydrolipstatin, reference compound], the “effect of XENICAL on EPA incorporation in red blood cells” value ([2]; fish oil + XENICAL compared with fish oil without XENICAL, day 7) was “decreases EPA incorporation in red blood cells”.
